Laboratory results: patent publication US20110230481A2, “DERIVATIVES OF TETRABROMOBENZIMIDAZOLE, A PROCESS FOR THE PREPARATION THEREOF, A PHARMACEUTICAL COMPOSITION COMPRISING THE SAME, A METHOD OF USING THE SAME, A METHOD FOR MODULATING OR REGULATING SERINE/THREONINE KINASES, AND SERINE/THREONINE KINASES MODULATING AGENT” (SELVITA S.A., priority 2009, published 2011)

Tests used:
[1] = biological target: T1, RSK1(Kin.Dom.2-C-terminal) (Homo sapiens, UniProt Q15418); assay: KINOMEscan Max; format: binding
T1 construct: RSK1(Kin.Dom.2-C-terminal); purchased Ambit Kinomescan (contract screening)
Outline: (§1)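 Active-site competition binding format, not an activity assay. Tagged kinase retained on immobilized ligand is detected by quantitative PCR of its DNA label.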

ERK3 = ERK3 (Homo sapiens, UniProt Q16659); assay: KINOMEscan Max; format: binding
Outline: as §1

VRK2 = VRK2 (Homo sapiens, UniProt Q86Y07); assay: KINOMEscan Max; format: binding
Outline: as §1

EGFR(S572-I759del) = assay: KINOMEscan Max; format: binding, human; settings: 1 μM
Protocol: (§2) Kinase panel profiling was performed at Ambit Kinomescan (http://www.ambitbio.com/technology/) using the “KINOMEscan™ Max” assay platform, a high-throughput method for screening small molecule compounds against large numbers of human kinases. KINOMEscan™ is based on a competition binding assay that quantitatively measures the ability of a compound to compete with an immobilized, active-site directed ligand. The assay is performed by combining three components: DNA-tagged kinase; immobilized ligand; and a test compound. The ability of the test compound to compete with the immobilized ligand is measured via quantitative PCR of the DNA tag. For a description of Ambit's assay protocol, see Fabian et al. A small molecule-kinase interaction map for clinical kinase inhibitors. Nat. Biotechnol. 23, 329-336 (2005).

[2] = tested on: EGFR(L747-S572del. P573S); assay: KINOMEscan Max; format: binding, human; settings: 1 μM
Protocol: as §2

FLT3(ITD) = assay: KINOMEscan Max; format: binding, human; settings: 1 μM
Protocol: as §2

ISR1 = assay: KINOMEscan Max; format: binding, human; settings: 1 μM
Protocol: as §2

T1 sequence (Q15418 418-675 limits assumed): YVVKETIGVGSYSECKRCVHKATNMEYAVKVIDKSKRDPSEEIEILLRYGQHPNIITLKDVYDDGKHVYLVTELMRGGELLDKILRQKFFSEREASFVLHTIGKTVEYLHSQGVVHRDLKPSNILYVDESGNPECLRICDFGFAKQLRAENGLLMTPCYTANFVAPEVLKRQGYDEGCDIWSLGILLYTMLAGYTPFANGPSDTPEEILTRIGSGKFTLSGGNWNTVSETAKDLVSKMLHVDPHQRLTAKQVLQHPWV
Sequence of VRK2 (Q86Y07 whole entry): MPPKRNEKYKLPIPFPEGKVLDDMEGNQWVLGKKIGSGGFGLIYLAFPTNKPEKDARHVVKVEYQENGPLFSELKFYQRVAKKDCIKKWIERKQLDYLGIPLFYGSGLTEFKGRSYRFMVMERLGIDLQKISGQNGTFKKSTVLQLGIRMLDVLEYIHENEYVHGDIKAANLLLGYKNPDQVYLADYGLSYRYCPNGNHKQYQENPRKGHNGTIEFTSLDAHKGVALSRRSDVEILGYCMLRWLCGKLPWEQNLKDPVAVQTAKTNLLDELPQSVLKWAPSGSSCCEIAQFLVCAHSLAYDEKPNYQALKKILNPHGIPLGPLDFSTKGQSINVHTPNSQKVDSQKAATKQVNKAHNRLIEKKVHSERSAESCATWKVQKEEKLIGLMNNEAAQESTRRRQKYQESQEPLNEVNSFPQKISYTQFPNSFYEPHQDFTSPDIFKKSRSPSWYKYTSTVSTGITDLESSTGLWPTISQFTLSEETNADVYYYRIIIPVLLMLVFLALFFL
Sequence of ERK3 (Q16659 whole entry): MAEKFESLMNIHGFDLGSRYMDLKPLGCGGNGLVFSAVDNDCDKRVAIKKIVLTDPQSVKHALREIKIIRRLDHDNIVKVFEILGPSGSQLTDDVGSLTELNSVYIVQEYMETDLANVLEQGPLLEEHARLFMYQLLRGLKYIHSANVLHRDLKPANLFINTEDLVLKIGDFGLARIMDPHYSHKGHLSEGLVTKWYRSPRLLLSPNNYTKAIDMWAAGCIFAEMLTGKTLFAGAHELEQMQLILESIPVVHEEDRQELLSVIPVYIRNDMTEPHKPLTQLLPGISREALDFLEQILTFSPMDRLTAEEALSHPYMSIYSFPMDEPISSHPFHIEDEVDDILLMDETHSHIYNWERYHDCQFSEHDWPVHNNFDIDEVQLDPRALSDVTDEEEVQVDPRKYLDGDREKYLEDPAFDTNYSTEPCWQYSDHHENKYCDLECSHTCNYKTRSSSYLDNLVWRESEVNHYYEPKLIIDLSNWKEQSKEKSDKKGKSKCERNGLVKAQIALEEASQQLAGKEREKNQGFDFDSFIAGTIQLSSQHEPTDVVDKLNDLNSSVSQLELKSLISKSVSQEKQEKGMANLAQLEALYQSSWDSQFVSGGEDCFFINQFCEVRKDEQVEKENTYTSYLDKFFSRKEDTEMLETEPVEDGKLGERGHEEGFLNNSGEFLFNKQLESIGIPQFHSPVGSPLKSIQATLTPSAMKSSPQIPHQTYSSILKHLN

`NCCCNc1nc2c(Br)c(Br)c(Br)c(Br)c2[nH]1` [Compound 11, N-(3-aminopropyl)-4,5,6,7-tetrabromo-1H-benzo[d]imidazol-2-amine] gave a remaining binding at 1 µM [1] of 96%, a remaining binding at 1 µM (ERK3) of 75% and a remaining binding at 1 µM (VRK2) of 79%. For the same compound, the “% binding” value (EGFR(S572-I759del)) was 99%, the “% binding” value [2] was 86% and the “% binding” value (FLT3(ITD)) was 35%. The “% binding” value (ISR1) was 81%.

For `CN(C)c1nc2c(Br)c(Br)c(Br)c(Br)c2[nH]1` [DMAT, reference compound], the “Solubility [mM] in phosphate buffer pH 7.4” value was <0.01 mM.
